Laboratory results reported in publication PMC3341351, “Down-Regulation of GABAA Receptor via Promiscuity with the Vasoactive Peptide Urotensin II Receptor. Potential Involvement in Astrocyte Plasticity” (PLoS ONE, 2012).

How the values were obtained:
Format in all cases: cell-based
[1] = system: α2β1 GABAAR co-expressed with human UT; assay: Patch-clamp of Iso-evoked current in CHO-UT expressing α2β1 GABAAR; details: hUII 10^−13 to 10^−7 M; Iso 10^−4 M, 2 s; −60 mV
UT in human U87 glioma = assay: Cell surface ELISA of UT in U87 glioma; details: hUII 10^−8 M, 30 min, absence or presence of the UT C-terminus
Experimental: The human cell line from glioblastoma U87 was obtained from the American Type Culture Collection (LGC Standards, Molsheim, France). U87 cells were maintained in DMEM containing 10% FBS and 1% sodium pyruvate. NHA-Astrocytes (Lonza, Walkersville, MD, USA) were cultivated in DMEM culture medium supplemented with 2 mM glutamine, 5 mM HEPES, 1% non essential amino acids, 1% sodium pyruvate, B27, 25 ng/ml EGF, 1% of the antibiotic-antimycotic solution and 10% FBS. All cells were incubated at 37°C in a humidified atmosphere containing 5% CO2. Culture media were replaced every three days.
Cells were plated at 50 000 cells/well in 96-well plates coated with 0.1 mg/ml poly-L-ornithine (Sigma-Aldrich). […] Cells were fixed with 4% PFA in PBS for 5 min at RT, washed in PBS, and then permeabilized in 0.05% triton X100 (only for permeabilized cells) and non specific binding were blocked with PBS containing 1% FBS for 30 min at RT. […] The cells were washed four times with PBS, a colorimetric alkaline phosphatase substrate was added (SuperSignal ELISA, Thermo scientific, Fisher) and the resulting color reaction was measured using a Viktor multilabel plate reader (PerkinElmer, Courtaboeuf, France). Background absorbance from samples transfected with non-tagged receptors or from cells without first antibodies were systematically measured. […]

[2] = system: GABAAR co-expressed with UT^HA 351, UT^HA 332 or UT^HA 319; assay: Patch-clamp of Iso-evoked current in CHO co-expressing GABAAR and shorter truncated UT (UT^HA 351, UT^HA 332, UT^HA 319); details: hUII 10^−8 M, 1 min; Iso 10^−4 M, 2 s
Source text: For UT epitope-tagged with HA (UT^HA), or c-myc (UT^c-myc), human UT receptor cDNA inserted into pcDNA3.1 (Ressource Center, MI, USA) was amplified and PCR products were subcloned using the EcoRI and XhoI sites of pCMV-HA or pCMV-c-myc. Mutant UT receptor cDNAs were constructed by oligonucleotide-directed mutagenesis (Expand High Fidelity PCR System; Roche) using the human UT receptor cDNA inserted into pcDNA3.1 as a template. Two sets of forward and reverse oligonucleotides were used (Table S2) to introduce stop codons in frame of Leu370, Phe351, Gly332 and Thr319 (to generate UT371, UT351, UT332 and UT319, respectively). PCR products were subcloned using the EcoRI and XhoI sites of pCMV-HA after digestion by the same restriction enzymes. Mutagenesis was confirmed by automated nucleotide sequencing.
The conventional whole-cell configuration of the patch-clamp technique was used to study the GABA-gated currents in astrocytes and granule neurons, UT stably transfected CHO, CHO-UT, and CHO transiently transfected with diverse variants of UT and GABAAR subunits. After 24-h transfection, cell culture coverslips were placed in a small chamber (1.5 ml) on a stage of a right microscope DMLFSA (Leica, Heidelberg, Germany) and superfused continuously with the following bath solution containing (in mM): NaCl, 150; KCl, 2.5; HEPES, 5; CaCl2, 2; MgCl2, 1; glucose, 10 (pH 7.4 adjusted with NaOH). […]

## ETPDCFWKYCV (disulfide) [hUII, human urotensin II, synthesized by solid phase methodology]
[1]
  Inhibitory effect on Iso-evoked current, α2β1: totally ineffective
UT in human U87 glioma
  UT levels at the cell surface, U87: remained unchanged
[2]
  hUII effect on GABAAR activity with shorter truncated UT forms: totally failed to alter the GABAAR activity
